Tests used:
[1] = system: male OF-1 “intruder” mice; experiment: Intruder test (social withdrawal of intruder mice); type: in vivo, mouse
Method: Rufinamide, a Na-channel blocker and anti-epileptic agent, and carbamazepine, an anticonvulsant employed to treat bipolar disorder, were given to male OF-1 “intruder” in oral-doses of 1/3/10 mg/kg, 1 hr before the animals were confronted with an individually-housed, aggressive, male OF-1 resident mouse. […] This increase in social investigation (sociotropic effect) was accompanied by a decrease in the frequency and duration of defensive ambivalence probably through competitive inhibition. No signs of motor stimulation were detected.
The Intruder test duplicates a territorial encounter between a territory holder (aggressive male) and a subordinate “intruder” mouse. […] In this test the intruders receive the treatment whereas the residents remain untreated. (Dixon, A. K., Huber, C., Lowe, D. J. Clin. Psychiatry. 55 (9) Suppl B, 4-7 (1994)). For purposes of this study, rufinamide and carbamazepine were given orally to intruder mice 1 hr before being introduced singly to aggressive residents using doses of ⅓ and 10 mg/kg.
Over 60 ethological elements describing the social and non-social behaviour of mice based on the ethogram originally proposed by Grant and Mackintosh (Grant, E. C. Mackintosh, J. H. Behaviour 21: 246-259 (1963) ) and classified according to 9 behavioural categories (Dixon, A. K., Huber, C., Fisch, H. U. Adv. Study. Behaviour. 19: 171-204 (1990)) form the rodent ethogram as used in this test (FIG. 3).

[2] = system: Male Rj: Wistar (Han) rats; experiment: Vogel Conflict Test in the rat; type: in vivo; conditions: for number of shocks received (punished drinking), change vs vehicle control: 60 minutes before the test
Method: Rufinamide was dispersed in 0.5% methylcellulose (MC) in distilled water. Vehicle was dispersed in 0.5% MC in distilled water. Clobazam was dispersed in 0.5% MC in distilled water. Methylcellulose (Sigma), batch n° 62K0144, white powder. Distilled water (Laboratoire Aguettant, sterile water for injectable preparation). All substances were stored in a dry, dark, controlled access area and maintained at a controlled ambient temperature (+18° C.). The vehicle suspensions were stored at +4° C.
The vehicle, test substance and reference substance were administered in a volume of 5 ml/kg body weight.
Male Rj: Wistar (Han) rats, 171-205 g body weight range were used. They were supplied by Elevage Janvier, 53940 Le Genest-Saint-Isle, France.
Animals were delivered to the laboratory at least 5 days before the experiment, during which time they were acclimatized to the laboratory conditions. They were housed in groups of 5 in macrolon cages (41×25×14 cm) on wood litter (Litalabo—SPPS, 95100 Argenteuil, France) with free access to food (Code 113-SAFE, 91360 Epinay-sur-Orge, France) and water until
Results in grouped data tables are presented as means followed by a ± sign and the standard error of the mean (s.e.m.) on the basis of 15 animals per group and as percent change from control. The statistical tests used are indicated with the method. All statistical calculations were performed using commercial software (Microsoft Excel®, GB Stat version 6.5), and verified test by test according to Porsolt & Partners Pharmacology's standardized internal procedures. All differences were considered statistically significant when the null hypothesis could be rejected at the risk α=0.05 or less.
Rats were deprived of water for 48 hours and were then placed individually into a transparent Plexiglas enclosure (15×32×34 cm) with a floor consisting of stainless steel bars (0.4 cm) spaced 1 cm apart. The back wall of the enclosure was made of opaque Plexiglass thereby concealing the observer from the experimental animal. In the centre of the opposite wall, 5 cm above the floor, a metal water spout protruded into the cage and was connected to one pole of a shock generator (Apelex: Type 011346). The other pole of the shock generator was connected to the metal grid floor.
The rat was left to explore until it found the water spout. Then, every time it drank, it received a slight electric shock (1.7 mA, 1 sec.) 2 seconds after it started lapping. The number of shocks received (punished drinkings) was counted during a 3 minute period.
15 rats were studied per group. The test was performed blind.
rufinamide was evaluated at 25, 50, 100 and 200 mg/kg, administered p.o. 60 minutes before the test, and compared with a vehicle control group.
Clobazam (64 mg/kg), administered under the same experimental conditions, was used as reference substance.
Data were analyzed by comparing treated groups with vehicle control using unpaired Student's t tests.

“intruder” rat = experiment: social exploration test in rats; type: in vivo; conditions: vs vehicle
Text: There remains a paucity of data investigating the anxiolytic potential of this rufinamide. Therefore the aim of the present study was to test the effect of rufinamide (FIG. 1, chemical structure of rufinamide) with regard to a possible facilitation of social behavior (anxiolytic-like effect) using the social exploration test in rats as a paradigm. The basis of this test is that when an adult “resident” rat is kept in social isolation for two weeks, its natural tendency to establish territorial defensive reactions is increased. […] Male adult Sprague Dawley rats (Ra238, OFA/IC strain, Iffa Credo, France) (“residents”) weighing 350-400 g and young Lister Hooded rats (li/ho, Harlan, The Netherlands) (“intruders”) weighing 100-120 g were used. “Intruders” were housed in pairs and the “residents” were individually housed for two weeks before the test in plastic cages (Macrolon, 42×26×15 cm). All animals lived in a room lit from 6 a.m. until 6 p.m. and had always free access to standard food and water. […]
Pairs consisting of one “intruder” rat and one “resident” rat were assigned at random to one of the experimental or the control groups. […] The duration of active approach behaviors of the “intruder” rat (sniffing, anogenital exploration, nosing, grooming, licking, playing) towards the “resident” was manually registered and cumulatively recorded over a period of 5 minutes. […]

[3] = 1/3/10 mg/kg oral, 1 hr before encounter

For `NC(=O)c1cn(Cc2c(F)cccc2F)nn1` [rufinamide, 1-(2,6-difluorobenzyl)-1H-1,2,3-triazole-4-carboxamide], the “non-social (NS) behaviour, frequency” value ([1]; 1/3/10 mg/kg oral, 1 hr before 6 minute encounter) was “significant, dose-related increase”, the “social investigation (SI)” value ([1]; 1/3/10 mg/kg oral, 1 hr before 6 minute encounter, frequency and duration) was “increased, albeit in a bell-shaped manner with only changes at 3 mg/kg attaining significance” and the “duration of defensive ambivalence (DA), arrested flight (AF) and escape” value [1, 3] was “significantly reduced but not uniformly”. The “frequencies of arrested flight and escape” value [1, 3] was “only reduced significantly at 1 mg/kg”, the “time spent in non-social activities” value [1, 3] was “only weakly following suit” and the “total number of ethological elements performed in the 6 minute encounter” value [1, 3] was “increased in a dose-related manner”. For the same molecule, the “time spent in static flight (SF) postures” value ([1]; at 3 and 10 mg/kg oral, 1 hr before encounter) was “significant shortening”, the “dose which is sociotropic in the intruder test” value ([1]; oral) was 3 mg/kg and the “number of shocks received (punished drinking), change vs vehicle control” value (“number … change vs vehicle control” for short) ([2]; 25 mg/kg p.o., 3 minute period, 15 rats) was “+31%”. The “number … change vs vehicle control” value ([2]; 50 mg/kg p.o., p<0.05) was “+40%”, the “number … change vs vehicle control” value ([2]; 100 mg/kg p.o.) was “+55%” and the “number … change vs vehicle control” value ([2]; 200 mg/kg p.o.) was “+83%”. The “dose-range of anxiolytic-like activity” value ([2]; p.o.) was 25 to 200 mg/kg, the “dose from which the increase in shocks received is significant” value ([2]; p.o., p<0.05) was no less than 50 mg/kg and the “time spent in social contact” value (“intruder” rat; rufinamide 0.3 mg/kg p.o., 1 hour after application) was “did not induce any significant change”. For the same molecule, the “duration of social contacts of an intruder toward a resident rat” value (“intruder” rat; rufinamide 1, 3, 10, 30 and 100 mg/kg p.o., tested 1 hour after application, 5 min observation) was “significantly increased”.
